Experimental data taken from the Deep4Chem optical property database.

Assay: solvent given as SMILES

COc1cc(/C=C/c2cc[n+](Cc3ccc(Br)cc3)cc2)ccc1O
emission maximum (in CC#N): 557 nm | emission maximum (in CC(C)=O): 562 nm | emission maximum (in CC(C)CO): 556 nm | emission maximum (in CC(C)O): 559 nm | emission maximum (in CCC#N): 559 nm | emission maximum (in CCCCCCO): 553 nm | emission maximum (in CCCCCO): 554 nm | emission maximum (in CCCCO): 558 nm | emission maximum (in CCCO): 559 nm | emission maximum (in CCO): 564 nm | emission maximum (in CN(C)C=O): 565 nm | emission maximum (in CN(C)P(=O)(N(C)C)N(C)C): 567 nm | emission maximum (in CO): 566 nm | emission maximum (in CS(C)=O): 568 nm

F[B-]1(F)OC(c2ccc3c(c2)Cc2ccccc2-3)=CC(c2ccccc2)=[O+]1
emission maximum (in CC#N): 491 nm

COc1ccc(-c2cc3c(s2)=CC2=C(C(F)(F)F)c4cc5sc(-c6ccc(OC)cc6)cc5n4[B-](F)(F)[N+]=32)cc1
emission maximum (in C1CCOC1): 754 nm | emission maximum (in ClC(Cl)Cl): 754 nm

CC(C)[Si](C#Cc1c2cc3ccccc3cc2c(C#C[Si](C(C)C)(C(C)C)C(C)C)c2nc3cc4c(cc3nc12)C1c2ccccc2C4c2ccccc21)(C(C)C)C(C)C
emission maximum (in CCCCCC): 682 nm | emission maximum (in ClCCl): 718 nm

COc1ccc2cc(C3=[N+]4C(=Nc5c(-c6ccc7ccccc7c6)cc(-c6ccc7cc(OC)ccc7c6)n5[B-]4(F)F)C(c4ccc5ccccc5c4)=C3)ccc2c1
emission maximum (in ClCCl): 754 nm

COc1cc(OC)cc(C2=CC(c3ccccc3)=C(c3ccccc3)C2)c1
emission maximum (in ClCCl): 449 nm

COc1ccc(-c2c3cc4ccccc4cc3c(-c3ccc(OC)cc3)c3cc4ccccc4cc23)cc1
emission maximum (in ClCCl): 620 nm

CB1C=Cc2ccc3ccccc3c2N1
emission maximum (in C1CCCCC1): 373 nm

N#Cc1c(N2CCCC2)cc(-c2ccccc2)c2c1-c1ccccc1C2
emission maximum (in C1CCOC1): 446 nm

CC[N+]1(CC)CN2C(=N1)C(C(=O)O)=Cc1ccccc12
emission maximum (in CN(C)C=O): 463 nm | emission maximum (in O): 462 nm

COc1ccc(-c2nnc(-c3cc(-c4nnc(-c5ccc(OC)cc5)o4)c(-n4c5ccccc5c5ccccc54)cc3-n3c4ccccc4c4ccccc43)o2)cc1
emission maximum (in Cc1ccccc1): 428 nm | emission maximum (in O=P(c1ccccc1)(c1ccccc1)c1ccccc1Oc1ccccc1P(=O)(c1ccccc1)c1ccccc1): 452 nm

c1ccc(-c2ccc(-c3cc(-c4ccccn4)nc(-c4ccccn4)c3)cc2)cc1
emission maximum (in ClCCl): 360 nm

O=C(O)CCCOc1cccc(-c2c3nc(cc4ccc([nH]4)c(-c4cccc(OCCCC(=O)O)c4)c4nc(cc5ccc2[nH]5)C=C4)C=C3)c1
emission maximum (in CS(C)=O): 632 nm

CCCCN1c2ccccc2Sc2cc(/C=C/c3nc4nc5ccccc5nc4s3)ccc21
emission maximum (in C1CCCCC1): 558 nm | emission maximum (in C1CCOC1): 670 nm | emission maximum (in C1COCCO1): 640 nm | emission maximum (in CC(C)=O): 739 nm | emission maximum (in CCOC(C)=O): 670 nm | emission maximum (in CCOCC): 635 nm | emission maximum (in Cc1ccccc1): 621 nm | emission maximum (in ClCCl): 729 nm

CCCCCN1c2ccccc2Sc2cc(/C=C/c3ccc(/C=C(\C#N)C(=O)O)s3)ccc21
emission maximum (in ClCCl): 704 nm

CCCCCCn1c2cc(C=C(C#N)C#N)sc2c2sc3c(sc4c5sc(C=C(C#N)C#N)cc5n(CCCCCC)c43)c21
emission maximum (in ClCCl): 620 nm

COc1ccc(C2=[N+]3C(=Nc4c(C)cc(-c5ccc(OC)cc5)n4[B-]3(F)F)C(C)=C2)cc1
emission maximum (in CS(C)=O): 692 nm

CCCCCCCCN1C(=O)c2ccc3c4c(-c5ccc6c(c5)c5ccccc5n6-c5ccccc5)cc5c6c(cc(-c7ccc8c(c7)c7ccccc7n8-c7ccccc7)c(c7ccc(c2c37)C1=O)c64)C(=O)N(CCCCCCCC)C5=O
emission maximum (in ClC(Cl)Cl): 663 nm

CCN(CC)c1ccc2cc(/C=C/C3=C4CC/C(=C\c5cc6ccc(N(CC)CC)cc6oc5=O)C4=[O+][B-](F)(F)O3)c(=O)oc2c1
emission maximum (in C1COCCO1): 675 nm | emission maximum (in CC#N): 758 nm | emission maximum (in CC(C)=O): 734 nm | emission maximum (in CCOC(C)=O): 693 nm | emission maximum (in CN(C)C=O): 758 nm | emission maximum (in CS(C)=O): 780 nm | emission maximum (in Cc1ccccc1): 658 nm | emission maximum (in ClC(Cl)Cl): 706 nm | emission maximum (in ClCCl): 730 nm

O=C1c2cccc3cc4ccccc4c(c23)C(=O)N1Cc1ccccn1
emission maximum (in C1CCOC1): 485 nm | emission maximum (in CCCCCC): 465 nm | emission maximum (in CCO): 500 nm | emission maximum (in Cc1ccccc1): 483 nm | emission maximum (in ClCCl): 490 nm

O=C1c2ccccc2C2=Nc3ccc4ccccc4[n+]3[B-](F)(F)N12
emission maximum (in ClCCl): 444 nm

CCNc1cc2c(cc1C)C(c1ccccc1C(=O)O)=C1CCCC(/C=C/C3=[N+](C)c4ccccc4C3(C)C)=C1O2
emission maximum (in CC#N): 728 nm | emission maximum (in CCO): 721 nm | emission maximum (in CO): 720 nm | emission maximum (in ClC(Cl)Cl): 722 nm

CCCCN(CCCC)c1ccc(C#Cc2cc(C#Cc3ccc(C(F)(F)F)cc3)c(C#Cc3ccc(N(CCCC)CCCC)cc3)cc2C#Cc2ccc(C(F)(F)F)cc2)cc1
emission maximum (in ClCCl): 546 nm | emission maximum (in c1ccccc1): 506 nm

N#Cc1cc(/C=C/c2ccc(N(c3ccccc3)c3ccccc3)cc2)ccc1/C=C/c1ccc(/C=C/c2ccc(N(c3ccccc3)c3ccccc3)cc2)cc1
emission maximum (in ClCCl): 560 nm

Cc1cc(-c2nc(-c3ccccc3)nc(-c3ccccc3)n2)cc(C)c1N1c2ccccc2CCc2ccccc21
emission maximum (in Cc1ccccc1): 475.79 nm

CCn1c2ccccc2c2cc(/C=C/c3cc(/C=C/c4ccc5c(c4)c4ccccc4n5CC)[n+](CCCS(=O)(=O)[O-])c(/C=C/c4ccc5c(c4)c4ccccc4n5CC)c3)ccc21
emission maximum (in C1CCOC1): 605 nm | emission maximum (in CC#N): 611 nm | emission maximum (in CC(C)=O): 610 nm | emission maximum (in Cc1ccccc1): 599 nm

c1ccc(-c2c3c(cc4c2-c2ccccc2C4)-c2ccccc2C3)cc1
emission maximum (in C1CCCCC1): 364 nm

Cc1ccc(S(=O)(=O)Nc2c(/C=C/c3ccccc3)sc(-c3ccc(N(C)C)s3)c2-c2cccnc2)cc1
emission maximum (in CC#N): 610 nm

Cc1ccc2c(c1)C(=O)c1ccncc1-2
emission maximum (in CC#N): 536.75 nm | emission maximum (in CCCCCC): 487.83 nm

CCOc1ccc2c(-c3nc(-c4cccc(C)c4)no3)cc(=O)oc2c1
emission maximum (in CCO): 465 nm | emission maximum (in ClC(Cl)Cl): 456 nm

CCOC(=O)c1sc(SC)c2c(=O)n(C)nnc12
emission maximum (in C1CCOC1): 470 nm | emission maximum (in CC#N): 484 nm | emission maximum (in CCO): 501 nm | emission maximum (in CN(C)C=O): 487 nm | emission maximum (in CO): 508 nm | emission maximum (in CS(C)=O): 501 nm

Cc1ccc(-c2cc3ccccc3oc2=O)cc1
emission maximum (in C1CCOC1): 410 nm | emission maximum (in CCCCCC): 425 nm | emission maximum (in CCO): 408 nm | emission maximum (in CS(C)=O): 409 nm

CC(C)(C)c1cc2ccc3cc(C(C)(C)C)cc4c(N(c5ccccc5)c5ccccc5)cc(c1)c2c34
emission maximum (in C1CCOC1): 455.01 nm | emission maximum (in CC#N): 483.88 nm | emission maximum (in CCCCCC): 415 nm

CN(C)c1cc2oc3cc(N(C)C)c(F)cc3c(=O)c2cc1F
emission maximum (in CCO): 446 nm

Cc1cc(C)c(C)c(-c2cc(-c3c(C)c(C)cc(C)c3C)c3ccc4c(-c5c(C)c(C)cc(C)c5C)cc(-c5c(C)c(C)cc(C)c5C)c5ccc2c3c54)c1C
emission maximum (in ClCCl): 412 nm

Cc1ccc2c(c1)C1(c3ccccc3Oc3ccccc31)c1cc(C)ccc1N2c1ccc(-c2nc(-c3ccccc3)cc(-c3ccccc3)n2)cc1
emission maximum (in Cc1ccccc1): 451 nm | emission maximum (in O=P(c1ccccc1)(c1ccccc1)c1ccc2oc3ccc(P(=O)(c4ccccc4)c4ccccc4)cc3c2c1): 452 nm

O=C([O-])c1cc(N2C(=O)C=CC2=O)ccc1-c1c2cc(F)c(=O)cc-2oc2cc([O-])c(F)cc12
emission maximum (in O): 520 nm

c1ccc2c(c1)[nH]c1c3[nH]c4ccccc4c3c3nsnc3c21
emission maximum (in CN(C)C=O): 493 nm | emission maximum (in Cc1ccccc1): 456 nm | emission maximum (in ClCCl): 489 nm

N#Cc1cc2nc3c(nc2cc1C#N)C1c2ccc(N(c4ccccc4)c4ccccc4)cc2C3c2ccc(N(c3ccccc3)c3ccccc3)cc21
emission maximum (in C1CCCCC1): 487 nm | emission maximum (in CC#N): 492 nm | emission maximum (in Cc1ccccc1): 552 nm | emission maximum (in ClCCl): 497 nm

COc1cc2c(cc1OC)C1=C3C(=O)N4C=Cc5cc(OC)c(OC)cc5C4=C3C(=O)N1C=C2
emission maximum (in CN(C)C=O): 602 nm | emission maximum (in ClC(Cl)Cl): 597 nm

CCCCN1C(=O)C(=CC=C2N(CCCC)c3ccccc3N2CCCC)C(=O)N(CCCC)C1=S
emission maximum (in CCCCCC): 488 nm | emission maximum (in CCO): 478 nm | emission maximum (in CN(C)C=O): 482 nm | emission maximum (in Cc1ccccc1): 490 nm | emission maximum (in ClC(Cl)Cl): 489 nm | emission maximum (in ClCCl): 486 nm

C[Si](C)(C)c1cccc2c(C#N)cccc12
emission maximum (in C1CCCCC1): 333 nm

O=C1CC(=O)Nc2ccccc2N1
emission maximum (in CS(C)=O): 337 nm

C=C(C)C(CN1C(=O)c2cccc3c2c(cc2nc(C)oc23)C1=O)OO (centres undefined)
emission maximum (in CCO): 412 nm

c1ccc2cc3c(cc2c1)-c1cccc2cc4ccccc4c-3c12
emission maximum (in CCCCCCC): 471 nm

COc1ccc(C2=c3sc(-c4ccc(OC)cc4)c(-c4ccc(OC)cc4)c3=[N+]3C2=Nc2c(-c4ccc(OC)cc4)c4sc(-c5ccc(OC)cc5)c(-c5ccc(OC)cc5)c4n2[B-]3(F)F)cc1
emission maximum (in ClC(Cl)Cl): 816 nm

C(=C\c1ccc(N(c2ccccc2)c2ccccc2)cc1)/c1ccc(-c2cc(-c3ccccn3)nc(-c3ccccn3)c2)cc1
emission maximum (in C1CCOC1): 502 nm | emission maximum (in C1COCCO1): 466 nm | emission maximum (in CC#N): 560 nm | emission maximum (in CCO): 556 nm | emission maximum (in ClCCl): 519 nm

CCCCn1c(-c2ccc(-c3nnc(-c4cccs4)o3)cc2)nc(-c2ccccc2)c1-c1ccccc1
emission maximum (in ClCCl): 444 nm

Cc1nc2c(ccc3c2sc(/C=C/c2ccc(-n4c5ccccc5c5ccccc54)cc2)[n+]3C)s1
emission maximum (in CO): 607 nm | emission maximum (in ClC(Cl)Cl): 638 nm

CCCCN1C(=O)c2cccc3c(C#CC#Cc4ccc5c6c(cccc46)C(=O)N(CCCC)C5=O)ccc(c23)C1=O
emission maximum (in ClCCl): 432 nm

c1ccc(B2Nc3cc4c(cc3-c3sc5ccccc5c32)NB(c2ccccc2)c2c-4sc3ccccc23)cc1
emission maximum (in ClCCl): 418 nm

COc1ccc2n1[B-](F)(F)[N+]1=C(c3ccccc3)C=CC1=C2c1ccc(C)cc1
emission maximum (in C1CCCCC1): 553 nm | emission maximum (in C1CCOC1): 555 nm | emission maximum (in C1COCCO1): 556 nm | emission maximum (in CCOC(C)=O): 552 nm | emission maximum (in CO): 550 nm | emission maximum (in Cc1ccccc1): 558 nm | emission maximum (in ClC(Cl)Cl): 557 nm

CN(C)c1ccc(/C=C/C=C/c2ccc(C#N)cc2)cc1
emission maximum (in CC#N): 589 nm | emission maximum (in CCCC#N): 579 nm | emission maximum (in CCCCCC): 440 nm | emission maximum (in CCOCC): 509 nm
